4 compounds from publication PMC11807261 (ACS infectious diseases, 2022) can be followed below.

The test relates to GDI-KD-9, the Mtb H37Ra-derived glnA1 knockdown mutant. The format is cell-based, Mycobacterium tuberculosis.

Each structure is given as a SMILES string.

For `C[C@]1(O)C[C@@H](c2nc(-c3ccc4ccc(-c5ccccc5)nc4c3)c3c(N)nccn32)C1` [LIN, linsitinib], the “level at which growth inhibition saturates” value came to 20 % full scale.

Consider `CS(=N)(=O)CCC(N)C(=O)O` [MSO, L-methionine S-sulfoximine], for which the “GIC shift caused by the reduction of glnA1 expression” value (shortened to “GIC shift caused by the reduction”) is recorded as 16 fold and the “growth inhibition at high concentrations” value is listed as “inhibits the growth completely”.

In the case of `COc1ccc2cc(-c3nc(C(C)(C)C)[nH]c3-c3ccnc(N)c3)ccc2c1` [11a], the “GIC shift (times more sensitive)” value is listed as 3.6 times, the “GIC shift caused by the reduction” value is on record as 3- to 4 fold and the “level at which growth inhibition saturates” value worked out at 20 % full scale.

Consider `CO[C@H]1/C=C/O[C@@]2(C)Oc3c(C)c(O)c4c(O)c(c(/C=N/N5CCN(C)CC5)c(O)c4c3C2=O)NC(=O)/C(C)=C\C=C\[C@H](C)[C@H](O)[C@@H](C)[C@@H](O)[C@@H](C)[C@H](OC(C)=O)[C@@H]1C` [RIF, rifampicin], for which the “GIC shift (times more sensitive)” value was “did not show any GIC shift” and the “GIC shift caused by the reduction” value was “remained susceptible”.
